Laboratory results published in publication PMC11530689, “Anti colorectal cancer activity and in silico studies of novel pyridine nortopsentin analog as cyclin dependent kinase 6 inhibitor” (Scientific Reports, 2024).

Legend:
Assay in all cases: NCI 60 cell line screen
HCT-116 = format: cell-based, human; conditions: HCT-116, Colon Cancer; single concentration 10^−5 M
Experimental: (§1) The cytotoxic activity of nortopsintin analogs (4a-4j) was determined by the national cancer institute (NCI, Bethesda, Maryland, USA) against 60 different cancer cell lines at a single concentration of (10^-5 M). For the determination of IC50 value, we used MTT assay kit (Sigma) according to the manufacturer's protocol. HCT-116 cells were seeded into a 96-well plate at a concentration of 20,000 cells/well. After 24 h, the media was aspirated and replaced with serum-free media containing serial dilutions of the 4i compound. […] The percentage of cytotoxicity was calculated using the following equation: % Cytotoxicity = [1 - ([…])] × 100.

NCI-H322M = format: cell-based; conditions: Non-Small Cell Lung Cancer, single concentration 10^−5 M
Experimental: as §1

U251 = format: cell-based; conditions: U251, CNS Cancer; single concentration 10^−5 M
Experimental: as §1

SR = format: cell-based; conditions: Leukemia, single concentration 10^−5 M
Experimental: as §1

MDA-MB-435 = format: cell-based; conditions: MDA-MB-435, Melanoma; single concentration 10^−5 M
Experimental: as §1

CCRF-CEM = format: cell-based; conditions: Leukemia, single concentration 10^−5 M
Experimental: as §1

ACHN = format: cell-based; conditions: Renal Cancer, single concentration 10^−5 M
Experimental: as §1

OVCAR-5 = format: cell-based; conditions: OVCAR-5, Ovarian Cancer; single concentration 10^−5 M
Experimental: as §1

OVCAR-4 = format: cell-based; conditions: OVCAR-4, Ovarian Cancer; single concentration 10^−5 M
Experimental: as §1

HOP-92 = format: cell-based; conditions: HOP-92, Non-Small Cell Lung Cancer; single concentration 10^−5 M
Experimental: as §1

COLO205 = format: cell-based; conditions: COLO205, Colon Cancer; single concentration 10^−5 M
Experimental: as §1

OVCAR-8 = format: cell-based; conditions: OVCAR-8, Ovarian Cancer; single concentration 10^−5 M
Experimental: as §1

HOP-62 = format: cell-based; conditions: HOP-62, Non-Small Cell Lung Cancer; single concentration 10^−5 M
Experimental: as §1

CAKI-1 = format: cell-based; conditions: CAKI-1, Renal Cancer; single concentration 10^−5 M
Experimental: as §1

NCI-H522 = format: cell-based; conditions: NCI-H522, Non-Small Cell Lung Cancer; single concentration 10^−5 M
Experimental: as §1

RXF 393 = format: cell-based; conditions: RXF 393, Renal Cancer; single concentration 10^−5 M
Experimental: as §1

SF-539 = format: cell-based; conditions: SF-539, CNS Cancer; single concentration 10^−5 M
Experimental: as §1

786-0 = format: cell-based; conditions: 786-0, Renal Cancer; single concentration 10^−5 M
Experimental: as §1

MDA-MB-231/ATCC = format: cell-based; conditions: Breast Cancer, single concentration 10^−5 M
Experimental: as §1

PC-3 = format: cell-based; conditions: PC-3, Prostate Cancer; single concentration 10^−5 M
Experimental: as §1

SW-620 = format: cell-based; conditions: SW-620, Colon Cancer; single concentration 10^−5 M
Experimental: as §1

MALME-3M = format: cell-based; conditions: Melanoma, single concentration 10^−5 M
Experimental: as §1

UO-31 = format: cell-based; conditions: UO-31, Renal Cancer; single concentration 10^−5 M
Experimental: as §1

HT29 = format: cell-based; conditions: HT29, Colon Cancer; single concentration 10^−5 M
Experimental: as §1

NCI-H460 = format: cell-based; conditions: NCI-H460, Non-Small Cell Lung Cancer; single concentration 10^−5 M
Experimental: as §1

A549/ATCC = format: cell-based; conditions: Non-Small Cell Lung Cancer, single concentration 10^−5 M
Experimental: as §1

A498 = format: cell-based; conditions: A498, Renal Cancer; single concentration 10^−5 M
Experimental: as §1

HCC-2998 = format: cell-based; conditions: HCC-2998, Colon Cancer; single concentration 10^−5 M
Experimental: as §1

UACC-62 = format: cell-based; conditions: UACC-62, Melanoma; single concentration 10^−5 M
Experimental: as §1

KM12 = format: cell-based; conditions: KM12, Colon Cancer; single concentration 10^−5 M
Experimental: as §1

IGROV1 = format: cell-based; conditions: IGROV1, Ovarian Cancer; single concentration 10^−5 M
Experimental: as §1

SF-295 = format: cell-based; conditions: SF-295, CNS Cancer; single concentration 10^−5 M
Experimental: as §1

MCF7 = format: cell-based; conditions: MCF7, Breast Cancer; single concentration 10^−5 M
Experimental: as §1

SK-MEL-5 = format: cell-based; conditions: SK-MEL-5, Melanoma; single concentration 10^−5 M
Experimental: as §1

NCI/ADR-RES = format: cell-based; conditions: Ovarian Cancer, single concentration 10^−5 M
Experimental: as §1

SNB-19 = format: cell-based; conditions: SNB-19, CNS Cancer; single concentration 10^−5 M
Experimental: as §1

UACC-257 = format: cell-based; conditions: UACC-257, Melanoma; single concentration 10^−5 M
Experimental: as §1

| SMILES | Growth % (HCT-116) [%] | Growth % (NCI-H322M) [%] | Growth % (U251) [%] | Growth % (SR) [%] | Growth % (MDA-MB-435) [%] | Growth % (CCRF-CEM) [%] | Growth % (ACHN) [%] | Growth % (OVCAR-5) [%] | Growth % (OVCAR-4) [%] | Growth % (HOP-92) [%] | Growth % (COLO205) [%] | Growth % (OVCAR-8) [%] | Growth % (HOP-62) [%] | Growth % (CAKI-1) [%] | Growth % (NCI-H522) [%] | Growth % (RXF 393) [%] | Growth % (SF-539) [%] | Growth % (786-0) [%] | Growth % (MDA-MB-231/ATCC) [%] | Growth % (PC-3) [%] | other results |
| --- | --- | --- | --- | --- | --- | --- | --- | --- | --- | --- | --- | --- | --- | --- | --- | --- | --- | --- | --- | --- | --- |
| COc1cc(-c2cc(-c3c[nH]c4ccccc34)nc(-c3c[nH]c4ccccc34)c2C#N)cc(OC)c1OC [4g] | 104.41 | 93.11 | 100.17 | 94.92 | 100.31 | 99.17 | 98.52 | 103.55 | 103.83 | 92.84 | 106.57 | 98.26 | 87.93 | 75.97 | 93.33 | 120.31 | 93.66 | 102.99 | 82.84 | 91.47 | Growth % (SW-620): 100.40%; Growth % (MALME-3M): 88.70%; Growth % (UO-31): 65.92%; Growth % (HT29): 105.35%; Growth % (NCI-H460): 106.65%; Growth % (A549/ATCC): 99.60%; Growth % (A498): 103.11%; Growth % (HCC-2998): 107.87%; Growth % (UACC-62): 87.61%; Growth % (KM12): 99.69%; Growth % (IGROV1): 74.20%; Growth % (SF-295): 95.05%; Growth % (MCF7): 88.35%; Growth % (SK-MEL-5): 98.25%; Growth % (NCI/ADR-RES): 100.17%; Growth % (SNB-19): 98.31%; Growth % (UACC-257): 104.77% |
| CN(C)c1ccc(-c2cc(-c3c[nH]c4ccccc34)nc(-c3c[nH]c4ccccc34)c2C#N)cc1 [4i] | 57.78 | 92.92 | 92.50 | 32.38 | 81.62 | 78.55 | 98.60 | 102.79 | 95.26 | 104.62 | 91.18 | 96.39 | 82.30 | 68.37 | 93.15 | 106.90 | 75.80 | 99.08 | 99.81 | 89.56 | Growth % (SW-620): 46.63%; Growth % (MALME-3M): 97.41%; Growth % (UO-31): 72.88%; Growth % (HT29): 63.02%; Growth % (NCI-H460): 60.31%; Growth % (A549/ATCC): 89.56%; Growth % (A498): 98.45%; Growth % (HCC-2998): 88.23%; Growth % (UACC-62): 85.78%; Growth % (KM12): 58.37%; Growth % (IGROV1): 74.28%; Growth % (SF-295): 79.83%; Growth % (MCF7): 49.30%; Growth % (SK-MEL-5): 96.50%; Growth % (NCI/ADR-RES): 90.91%; Growth % (SNB-19): 79.65%; Growth % (UACC-257): 101.12% |
| N#Cc1c(-c2ccc(Cl)cc2)cc(-c2c[nH]c3ccccc23)nc1-c1c[nH]c2ccccc12 [4c] | 106.26 | 103.02 | 99.27 | 98.46 | 106.56 | 101.97 | 101.81 | 105.15 | 106.75 | 99.01 | 106.5 | 101.97 | 93.62 | 87.84 | 96.57 | 114.27 | 98.85 | 102.38 | 97.80 | 100.13 | Growth % (SW-620): 106.55%; Growth % (MALME-3M): 107.80%; Growth % (UO-31): 70.21%; Growth % (HT29): 107.41%; Growth % (NCI-H460): 106.15%; Growth % (A549/ATCC): 100.29%; Growth % (A498): 97.38%; Growth % (HCC-2998): 117.80%; Growth % (UACC-62): 89.22%; Growth % (KM12): 102.73%; Growth % (IGROV1): 91.10%; Growth % (SF-295): 99.60%; Growth % (MCF7): 89.99%; Growth % (SK-MEL-5): 99.39%; Growth % (NCI/ADR-RES): 98.53%; Growth % (SNB-19): 101.34%; Growth % (UACC-257): 108.88% |
| N#Cc1c(-c2ccc(F)cc2)cc(-c2c[nH]c3ccccc23)nc1-c1c[nH]c2ccccc12 [4d] | 104.67 | 106.25 | 94.85 | 89.11 | 107.27 | 102.09 | 101.89 | 109.33 | 101.04 | 93.44 | 113.48 | 100.20 | 100.69 | 92.51 | 97.04 | 111.59 | 100.06 | 99.50 | 102.47 | 103.05 | Growth % (SW-620): 106.63%; Growth % (MALME-3M): 101.85%; Growth % (UO-31): 84.72%; Growth % (HT29): 110.19%; Growth % (NCI-H460): 104.14%; Growth % (A549/ATCC): 101.42%; Growth % (A498): 89.44%; Growth % (HCC-2998): 109.40%; Growth % (UACC-62): 98.33%; Growth % (KM12): 100.66%; Growth % (IGROV1): 102.10%; Growth % (SF-295): 102.68%; Growth % (MCF7): 89.33%; Growth % (SK-MEL-5): 100.33%; Growth % (NCI/ADR-RES): 103.38%; Growth % (SNB-19): 102.08%; Growth % (UACC-257): 107.07% |
